Source: ChEMBL document CHEMBL1201862, “PubChem BioAssay data set” (2004)
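Growth conditions: 96-well plates. Treatment: test compound, 48 hours, 5 concentrations. Analysis: linear interpolation between bracketing concentrations; unreached endpoints set to highest concentration. At the GI50, growth is halved.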 Calls of active or inactive are those of the source. Rule as the data show it: active = GI50 up to about 1.1 µM and inactive = higher.

Assays:
Test in all cases: NCI-60 cell line screen, 48 h
786-0 = test system: 786-0
A498 = test system: A498
A549 = test system: A549
ACHN = test system: ACHN
CCRF-CEM = test system: CCRF-CEM
COLO 205 = test system: COLO 205
EKVX = test system: EKVX
HCC 2998 = test system: HCC 2998
HCT-116 = test system: HCT-116
HL-60 = test system: HL-60
HOP-62 = test system: HOP-62
HOP-92 = test system: HOP-92
HT-29 = test system: HT-29
Hs-578T = test system: Hs-578T
IGROV-1 = test system: IGROV-1
K562 = test system: K562
KM12 = test system: KM12
LOX IMVI = test system: LOX IMVI
M14 = test system: M14
MCF7 = test system: MCF7
MDA-MB-231 = test system: MDA-MB-231
MDA-MB-435 = test system: MDA-MB-435
MDA-N = test system: MDA-N
MOLT-4 = test system: MOLT-4
Malme-3M = test system: Malme-3M
NCI-H226 = test system: NCI-H226
NCI-H23 = test system: NCI-H23
NCI-H522 = test system: NCI-H522
NCI/ADR-RES = test system: NCI/ADR-RES
OVCAR-3 = test system: OVCAR-3
OVCAR-4 = test system: OVCAR-4
OVCAR-5 = test system: OVCAR-5
OVCAR-8 = test system: OVCAR-8
PC-3 = test system: PC-3
RPMI-8226 = test system: RPMI-8226
RXF 393 = test system: RXF 393
SF-295 = test system: SF-295
SF-539 = test system: SF-539
SK-MEL-2 = test system: SK-MEL-2
SK-MEL-5 = test system: SK-MEL-5
SK-OV-3 = test system: SK-OV-3
SN12C = test system: SN12C
SR = test system: SR
T47D = test system: T47D
TK-10 = test system: TK-10
U-251 = test system: U-251
UACC-257 = test system: UACC-257
UACC-62 = test system: UACC-62
UO-31 = test system: UO-31

Measured: GI50

COC(=O)c1c2c(cc3c1CC1(C3)Cc3cc4c(c(C(=O)OC)c3C1)CCC4)CCC2
inactive: 786-0 > 100 µM | A498 > 100 µM | A549 > 100 µM | ACHN > 100 µM | CCRF-CEM 98.9 µM | COLO 205 > 100 µM | EKVX > 100 µM | HCC 2998 > 100 µM | HCT-116 > 100 µM | HL-60 22.1 µM | HOP-62 > 100 µM | HOP-92 > 100 µM | HT-29 > 100 µM | Hs-578T 65.9 µM | IGROV-1 > 100 µM | K562 > 100 µM | KM12 > 100 µM | LOX IMVI > 100 µM | M14 > 100 µM | MCF7 > 100 µM | MDA-MB-231 > 100 µM | MDA-MB-435 > 100 µM | MDA-N > 100 µM | MOLT-4 > 100 µM | Malme-3M > 100 µM | NCI-H226 > 100 µM | NCI-H23 > 100 µM | NCI-H522 > 100 µM | NCI/ADR-RES > 100 µM | OVCAR-3 > 100 µM | OVCAR-4 86.9 µM | OVCAR-5 > 100 µM | OVCAR-8 > 100 µM | PC-3 > 100 µM | RPMI-8226 > 100 µM | RXF 393 > 100 µM | SF-295 > 100 µM | SF-539 > 100 µM | SK-MEL-2 > 100 µM | SK-MEL-5 > 100 µM | SK-OV-3 > 100 µM | SN12C > 100 µM | SR 30.7 µM | T47D > 100 µM | TK-10 > 100 µM | U-251 > 100 µM | UACC-257 > 100 µM | UACC-62 55.8 µM | UO-31 13.6 µM
